In PMC8670630 (Bioorganic & medicinal chemistry letters, 2021):

Columns and labels:
[1] = biological target: human sulfide:quinone oxidoreductase (SQOR) (Homo sapiens, UniProt Q9Y6N5); assay: SQOR inhibition; type: biochemical
[2] = Mouse plasma protein binding; type: in vitro ADME
[3] = test system: Caco-2; assay: Caco-2 permeability; type: in vitro ADME
[4] = test system: murine model of heart failure; details: ref [21],[22]; cited from earlier work
[5] = test system: mammalian cells; details: in vitro tests; ref [21],[22]; cited from earlier work
[6] = test system: CoQ-binding site in SQOR; details: in vitro tests; ref [21],[22]; cited from earlier work

Sequence of human sulfide:quinone oxidoreductase (SQOR) (Q9Y6N5 whole entry): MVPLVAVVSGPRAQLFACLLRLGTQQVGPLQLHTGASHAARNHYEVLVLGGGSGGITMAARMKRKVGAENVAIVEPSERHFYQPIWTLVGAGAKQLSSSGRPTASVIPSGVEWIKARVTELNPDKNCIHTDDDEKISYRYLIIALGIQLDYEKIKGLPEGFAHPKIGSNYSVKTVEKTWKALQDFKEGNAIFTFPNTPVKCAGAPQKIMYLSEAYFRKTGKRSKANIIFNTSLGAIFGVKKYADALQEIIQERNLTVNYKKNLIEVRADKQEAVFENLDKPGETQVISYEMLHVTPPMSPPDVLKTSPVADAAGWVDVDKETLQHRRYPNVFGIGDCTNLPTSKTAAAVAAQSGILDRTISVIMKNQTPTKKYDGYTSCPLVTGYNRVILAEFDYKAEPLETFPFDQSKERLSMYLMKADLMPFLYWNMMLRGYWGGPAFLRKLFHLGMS

With `CCOc1nc(-c2ccccc2)nc(-c2ccccc2)c1C#N` [Compound 24] the “fold less active than the equivalent pyridine 21” value ([1]; SQOR inhibition, 24 versus 21) was 2 fold.

In the case of `COc1nc(-c2ncccc2C)cc(-c2ccc(F)cc2)c1C#N` [Compound 15], the “Mouse Plasma Protein Binding (% bound)” value [2] is reported as 99.64 % bound, the “Caco-2 permeability A→B” value ([3]; A→B) is reported as 0.455 1 × 10^−6 cm/s and the “Caco-2 permeability B→A” value ([3]; B→A) is reported as 0.769 1 × 10^−6 cm/s.

For `COc1nc(-c2ncccc2C)cc(-c2ccc(N)cc2)c1C#N` [Compound 19], the “Mouse Plasma Protein Binding (% bound)” value [2] is listed as 97.8 % bound, the “effect on cardiac function and progression to heart failure” value [4] is listed as “preserves cardiac function and prevents the progression to heart failure” and the “toxicity in mammalian cells” value [5] is listed as “little or no toxicity”. The “specificity for the CoQ-binding site in SQOR” value [6] was “high degree of specificity”.

With `COc1nc(-c2ccccc2)cc(-c2ccc(Cl)cc2Cl)c1C#N` [Compound 7] the “activity in IC50 assay (in words)” value [1] was “inactivity”.
